Measurements: patent US10375960B2, “Resin composition including insecticidal component” ([…] Control Consortium, priority 2015, dated 2019)

Key:
[1] = tested on: Anopheles gambiae VK7-strain; assay: Basic insecticidal activity, topical application method, pyrethroid-resistive strain (Test Example 4); format: in vivo; settings: for 50% Lethal Dose (LD50): pyrethroid-resistive female adults, topical application, mortality after 24 hours; for Relative Efficacy: relative to deltamethrin (=1), from LD50 values
Description: (§1) The basic insecticidal activity of the present compound was examined using a topical application method. Various concentrations of acetone solutions of the present compound were previously prepared. […] After the treatment, the female adult of Cancer Vieja Madara mosquito was moved into a plastic cup (having a diameter of 9 cm and a height of about 4.5 cm), and was fed with 5% sugar water. The mortality after 24 hours was examined. The number of the tested female adults of Cancer Vieja Madara mosquito was 10 heads per each one concentration in four replicate experiments. The 50% lethal dose (the LD50 value) of the present compound was calculated from the test result using probit method. The same experiment was conducted using ethofenprox as a control. The lower 50% lethal dose of a compound means the higher basic insecticidal activity of the compound. The ratio of the LD50 value of the present compound relative to the LD50 value of ethofenprox was calculated to acquire the relative efficacy of the present compound to ethofenprox.
The basic insecticidal activity of each of the present compound and deltamethrin was examined using the same method as that used in Test Example 1. Here the tested female adults of Cancer Vieja Madara mosquito were pyrethroid-resistive female adults of Cancer Vieja Madara mosquito (Anopheles gambiae VK7-strain), and the number of the tested insects was 10 heads per each one concentration in two replicate experiments. The ratio of the LD50 value of the present compound relative to the LD50 value of deltamethrin was calculated to acquire the relative efficacy of the present compound to deltamethrin.

[2] = tested on: Anopheles gambiae Kisumu-strain; assay: Basic insecticidal activity, topical application method (Test Example 1); format: in vivo; settings: for 50% Lethal Dose (LD50): female adults, 0.3 μL acetone solution on thoracodorsal region, mortality after 24 hours, probit method; for Relative Efficacy: relative to ethofenprox (=1), from LD50 values
Description: as §1

`CC1(C)[C@H](C(=O)O[C@H](C#N)c2cccc(Oc3ccccc3)c2)[C@@H]1C=C(Br)Br` [Deltamethrin, deltamethrin] was tested, and the “50% Lethal Dose (LD50)” value [1] was 0.00104 μg/female and the “Relative Efficacy” value [1] was 1.
`CCOc1ccc(C(C)(C)COCc2cccc(Oc3ccccc3)c2)cc1` [Ethofenprox, ethofenprox] was tested, and the “50% Lethal Dose (LD50)” value [2] was 0.0021 μg/female and the “Relative Efficacy” value [2] was 1.
In the case of `CCc1ncnc(NCCc2ccc(C(F)(F)F)cc2)c1Cl` [The present compound, 5-chloro-4-ethyl-6-[2-(4-trifluoromethylphenyl)ethylamino]pyrimidine], the “50% Lethal Dose (LD50)” value [2] is reported as 0.0094 μg/female, the “Relative Efficacy” value [2] is reported as 0.22 and the “50% Lethal Dose (LD50)” value [1] is reported as 0.01833 μg/female. For the same compound, the “Relative Efficacy” value [1] was 0.05674.
